Reference: ChEMBL document CHEMBL1151176, “Isolation of nor-secofriedelanes from the sedative extracts of Galphimia glauca” (2004)

What was measured:
Format in all cases: functional
Details in all cases: read-out: ED50 (the source's name)
[1] = system: KB; test: Cytotoxicity against human KB cells
[2] = system: HCT-15; test: Cytotoxicity against human HCT15 cells
[3] = system: OVCAR; test: Cytotoxicity against human OVCAR cells
[4] = Cytotoxicity against human SQC1 cells

Measured: EC50

COC(=O)[C@@]12CC[C@@]3(C)[C@@H]4C=CC(=O)OC[C@]4([C@@H](C)O)C[C@@H](O)[C@@H]3[C@@]1(C)CC[C@@]1(C)CCC(C)=C[C@]12O [GALPHIMINE C]
> 4 µg/mL: all assays above

COC(=O)[C@@]12CC[C@@]3(C)[C@@H]4C=CC(=O)OC[C@]4([C@H](C)O)[C@@H](O)[C@@H](OC(C)=O)[C@@H]3[C@@]1(C)CC[C@@]1(C)CC=C(C)C[C@]12O [GALPHIMINE D]
> 4 µg/mL: all assays above

COC(=O)[C@@]12CC[C@@]3(C)[C@@H]4C=CC(=O)OC[C@]4([C@@H](C)O)C[C@@H](O)[C@@H]3[C@@]1(C)CC[C@@]1(C)CC=C(C)C[C@]12O [GALPHIMINE B]
> 4 µg/mL: all assays above

COC(=O)[C@@]12CC[C@@]3(C)[C@@H]4C=CC(=O)OC[C@]4([C@@H](C)O)[C@@H](O)[C@@H](O)[C@@H]3[C@@]1(C)CC[C@@]1(C)CC=C(C)C[C@]12O [GALPHIMINE A]
> 4 µg/mL: all assays above

C=C1CC[C@]2(C)CC[C@]3(C)[C@H]4[C@H](O)[C@H](OC(C)=O)[C@@]5([C@@H](C)O)COC(=O)C=C[C@H]5[C@]4(C)CC[C@@]3(C(=O)OC)[C@]2(O)C1 [GALPHIMINE G]
> 4 µg/mL: all assays above

C=C1CC[C@]2(C)CC[C@]3(C)[C@H]4[C@H](O)C[C@@]5([C@@H](C)O)COC(=O)C=C[C@H]5[C@]4(C)CC[C@@]3(C(=O)OC)[C@]2(O)C1 [GALPHIMINE F]
> 4 µg/mL: all assays above

C=C1CC[C@]2(C)CC[C@]3(C)[C@H]4[C@H](OC(C)=O)[C@H](O)[C@@]5([C@H](C)O)COC(=O)C=C[C@H]5[C@]4(C)CC[C@@]3(C(=O)OC)[C@]2(O)C1 [GALPHIMINE I]
> 4 µg/mL: all assays above

C=C1CC[C@]2(C)CC[C@]3(C)[C@H]4[C@H](O)[C@H](O)[C@@]5([C@H](C)O)COC(=O)C=C[C@H]5[C@]4(C)CC[C@@]3(C(=O)OC)[C@]2(O)C1 [GALPHIMINE H]
> 4 µg/mL: all assays above

COC(=O)[C@@]12CC[C@@]3(C)[C@@H]4C=CC(=O)OC[C@]4([C@@H](C)O)[C@@H](OC(C)=O)[C@@H](O)[C@@H]3[C@@]1(C)CC[C@@]1(C)CC=C(C)C[C@]12O [GALPHIMINE E]
> 4 µg/mL: all assays above
